Reference: patent US20230193197A1, “TUNABLE PLANT-BASED MATERIALS VIA IN VITRO CELL CULTURE USING A ZINNIA ELEGANS MODEL” (FORAY Bioscience, Inc., priority 2021, published 2023)

Test system: Z. elegans cells
Experiment: Full factorial hormone concentration experiment in liquid culture (live fraction, lignification, enlargement, elongation metrics)
Format: cell-based, Zinnia elegans
Conditions: for cumulative levels of lignification / live fraction at day 12: NAA at 0.5 mg ml^-1 together with BAP at 1 mg ml^-1, compared across 16 hormone combinations
Method: In an embodiment, Z. elegans cells may be isolated by the maceration of young Zinnia leaves (e.g., leaves 114). Leaves collected from approximately 14 day-old Zinnia plants may be rinsed under running tap water for 5 min. Leaves may be sterilized in a solution of 5 ml commercial bleach (Clorox), 95 ml of deionized water, and […] of Tween 20 (Sigma Aldrich) for 5 min. Subsequently, leaves may be rinsed thoroughly with sterile distilled water, sliced into strips, and ground between the surfaces of a small sieve and a spoon (e.g., a stainless steel spoon). The leaf matter may be intermittently rinsed with ZE-M media and the rinsate may be collected in a bowl positioned beneath the supporting sieve. After completion of grinding, the rinsate may be collected and filtered through a […] cell strainer (e.g., manufactured by Fisher Scientific) to remove large debris. This strainer is just but an example and should not be considered limiting. The filtered solution may be centrifuged at 100 g for 8 min and resulting supernatant removed if more concentrated cell solutions are desired. Liquid cultures may be maintained at concentrations between 250,000 and 500,000 cells ml^−1 at 3 ml per well in a 6-well plate wrapped in parafilm. Cultures may be maintained at 22° C. in the dark on an orbital shaker operating at 80 rpm.
Cells may be cultured in this manner for 48 hours in the low-hormone media before transference to specialized experimental media. An incubation period may improve differentiation rates when cells may be later exposed to elevated levels of auxin and cytokinin. Auxins may be plant hormones produced in the stem tip that promote cell elongation. Cytokinins may be a class of plant hormones that promote cell division, or cytokinesis. For dispersed gel cultures, cells may be extracted and maintained in low-hormone, liquid medium for a 48 hour acclimation period, as previously described, prior to transference to a gel medium 108 solidified by the addition of Gelzan C M (e.g., manufactured by Sigma Aldrich) at a final concentration of 3 g L^−1. Cultures may be sealed off with parafilm and maintained at 22° C. in the dark.
For liquid cultures, well-mixed […] aliquots of cell suspension may be transferred to 48 well plates for imaging. A […] volume of a fluorescein diacetate (FDA) stock solution (prepared at 2 mg ml^−1 acetone) may be added to the cell suspension and incubated in the dark for 20 min. After the incubation period, […] of calcofluor white (CW) may be added and the solution rested for an additional 5 min prior to imaging. A Zeiss LSM780 confocal microscope, for example, may be set to excitation/emission wavelengths of […]/440 nm (DAPI filter) for CW and 490 nm/526 nm for FDA for imaging. Gel cultures may be stained through a similar dual-step process after wetting the gel surface with a small amount of liquid medium. Relative staining volumes may be the same, but increased incubation times may be involved (e.g., incubation times were approximately 45 min for FDA incubation, 45 min for CW incubation). Image analysis may be performed using Image-i. The thresholding tool may be used to select the relevant cell areas. To ensure robustness of the analyzed data ranges, the images corresponding to the highest and lowest values for a single sample may be analyzed a total of 3 times, with the repeated results averaged to yield a final value for the given image. […]

| SMILES | cumulative levels of lignification | live fraction at day 12 | elongation metric (BAP elevated, across most NAA concentrations) |
| --- | --- | --- | --- |
| O=C(O)Cc1cccc2ccccc12 [NAA, a-naphthaleneacetic acid] | highest | lowest | – |
| c1ccc(CNc2ncnc3nc[nH]c23)cc1 [BAP, 6-benzylaminopurine] | highest | lowest | reduced |
